Assay results from PubChem BioAssay (NCI).
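A five-concentration, 48-hour dose response in 96-well plates underlies each endpoint, interpolated linearly between surrounding concentrations. GI50 marks 50% less growth. TGI: total growth inhibition.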

Experiments:
Assay in all cases: inhibition of tumour cell growth, NCI panel, 48 h
CAKI-1 renal = tested on: CAKI-1 renal
HL-60(TB) leukemia = tested on: HL-60(TB) leukemia
COLO 205 colon = tested on: COLO 205 colon
UO-31 renal = tested on: UO-31 renal
SNB-19 CNS = tested on: SNB-19 CNS
UACC-62 melanoma = tested on: UACC-62 melanoma
HCC-2998 colon = tested on: HCC-2998 colon
SF-539 CNS = tested on: SF-539 CNS

SMILES	TGI (CAKI-1 renal) [µM]	TGI (HL-60(TB) leukemia) [µM]	TGI (COLO 205 colon) [µM]	TGI (UO-31 renal) [µM]	TGI (SNB-19 CNS) [µM]	TGI (UACC-62 melanoma) [µM]	TGI (HCC-2998 colon) [µM]	TGI (SF-539 CNS) [µM]	GI50 (HL-60(TB) leukemia) [µM]
CC1C[C@H](C)CC(C(O)CC2CC(=O)N(Cc3ccccc3)C(=O)C2)C1O (stereo not given in full)	> 100	> 100	> 100	> 100	> 100	> 100	> 100	> 100	
CC(/C(=N\Nc1ccccc1)c1ccc(O)cc1)C1C(=O)Oc2ccccc21 (stereo not given)	> 100	> 100	> 100	> 100	> 100	> 100	> 100	> 100	
NS(=O)(=O)c1ccc(NC2=CC(=O)C(=O)c3ccccc32)cc1	> 100	> 100	> 100	> 100	> 100	> 100	> 100	> 100	
N#Cc1c2c(c(N=P(c3ccccc3)(c3ccccc3)c3ccccc3)n3c1nc1ccccc13)CCCC2	> 100	24.8	24.8	79.4	99.2	74.4	> 100	> 100	
COc1ccc(C2CC(c3cc(C)ccc3O)=NC(N)=N2)cc1 (stereo not given)	> 100	> 100	> 100	> 100	> 100	> 100	> 100	> 100	
CC1SC2=NC3=C(c4ccccc4C3=O)C(c3ccc(Cl)cc3)N2C1=O (stereo not given)	> 100	> 100	> 100	> 100	> 100	> 100	> 100		
Cc1cccc2c1N(C(=O)/C=C\C(=O)O)C(c1c(C)[nH]c3ccccc13)C2 (stereo not given)	> 100	51.3	> 10	> 100	> 100	41.8	33.9		
O=C1CCC2CC(C(=O)c3ccccc3)CCC2CN1 (stereo not given) (tested in a mixture with another compound)	> 100	> 100	> 100	> 100	> 100	> 100	> 100	> 100	
CCOC(=O)C1C2CCC(C2)C1(CCl)C(=O)OCC (stereo not given)	> 100	> 100	> 100	> 100	> 100	> 100	> 100		
CCOC(=O)CSC(=O)NCCCl	> 100	> 100	> 100	> 100	> 100	> 100	> 100	> 100	22.3
COC(=O)C(CC(C)C)NC(=O)NC12CC3CC(CC(F)(C3)C1)C2 (stereo not given)		> 100	> 100	> 100	> 100	> 100	> 100	> 100	
O=C1c2ccccc2C(=O)N1CCN(CCN1C(=O)c2ccccc2C1=O)Cn1cccn1	> 100	74.5	> 100	> 100	> 100	63.2	> 100		
CNCc1cc(OC)ccc1-c1ccc(OC)c(OC)c1OC	> 100	> 100	> 100	> 100	> 100	> 100	> 100	> 100	
CC[P+](C)(C)c1ccccc1	> 100		> 100	> 100	> 100	> 100	> 100	> 100	
Cc1ccc(NC(=O)C(=O)C(C#N)c2nc(-c3ccc(-c4ccccc4)cc3)cs2)c(C)c1 (stereo not given)	> 100		> 100	> 100	> 100	> 100	> 100	> 100	
COC(=O)C(C(=O)C(=O)Nc1nc(=S)[nH][nH]1)c1csc(-n2nc(-c3ccccc3)cc2-c2ccccc2)n1 (stereo not given)	> 100	> 100	> 100	> 100	> 100	> 100	> 100		
NNC(=O)CNC(=O)c1ccc(Cl)cc1Cl	> 100	> 100	> 100	> 100	> 100	> 100	> 100	> 100	
O=C(c1ccccc1)[C@H]1Nc2ccc(Cl)cc2C2c3ccccc3CC21 (stereo not given in full)	> 100		> 100	> 100	> 100		83.4	> 100	
CCCCCCCCOCC(O)COC(=O)CCCCCCC (stereo not given)	> 100	93.9	> 100	> 100	> 100	> 100	> 100		
COC(=O)/C(=N\Nc1nc(=S)[nH]n1N)C(C#N)c1ccccc1 (stereo not given)		> 100	> 100	> 100	> 100	> 100	> 100		
COc1c(C(=O)c2ccc([N+](=O)[O-])cc2)cc(C(C)(C)C)cc1C(C)(C)C	> 100	47.2		> 100	> 100	36.2	66.9	> 100	
